Reference: BindingDB's records for patent US11220494 (Pfizer Inc., 2022)

Molecular target: Cyclin-dependent kinase 6/G1/S-specific cyclin-D3 (Homo sapiens, UniProt Q00534+P30281)
Assay: Mobility Shift Assay
Procedure: The purpose of the CDK6/Cyclin D3 assay is to evaluate the inhibition (% inhibition, Kiapp and Ki values) in the presence of small molecule inhibitors by using a fluorescence based microfluidic mobility shift assay. […] The mobility shift assay electrophoretically separates the fluorescently labeled peptides (substrate and phosphorylated product) following the kinase reaction. Both substrate and product are measured and the ratio of these values is used to generate % conversion of substrate to product by the LabChip EZ Reader. […] The reaction was stopped after 95 minutes by the addition of 50 μL of 30 mM EDTA. Ki determinations were made from a plot of the fractional velocity as a function of inhibitor concentration fit to the Morrison equation with the enzyme concentration as a variable.

Sequence of Cyclin-dependent kinase 6/G1/S-specific cyclin-D3 (Q00534 whole entry): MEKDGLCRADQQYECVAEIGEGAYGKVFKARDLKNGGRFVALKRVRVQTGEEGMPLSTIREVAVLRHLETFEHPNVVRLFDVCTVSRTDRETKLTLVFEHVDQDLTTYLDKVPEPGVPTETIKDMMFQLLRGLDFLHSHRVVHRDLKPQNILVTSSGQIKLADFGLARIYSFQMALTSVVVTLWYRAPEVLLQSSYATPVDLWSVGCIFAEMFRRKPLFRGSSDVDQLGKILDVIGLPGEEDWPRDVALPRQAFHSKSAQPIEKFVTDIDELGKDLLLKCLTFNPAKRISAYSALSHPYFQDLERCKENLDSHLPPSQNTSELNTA
Sequence of Cyclin-dependent kinase 6/G1/S-specific cyclin-D3 (P30281 whole entry): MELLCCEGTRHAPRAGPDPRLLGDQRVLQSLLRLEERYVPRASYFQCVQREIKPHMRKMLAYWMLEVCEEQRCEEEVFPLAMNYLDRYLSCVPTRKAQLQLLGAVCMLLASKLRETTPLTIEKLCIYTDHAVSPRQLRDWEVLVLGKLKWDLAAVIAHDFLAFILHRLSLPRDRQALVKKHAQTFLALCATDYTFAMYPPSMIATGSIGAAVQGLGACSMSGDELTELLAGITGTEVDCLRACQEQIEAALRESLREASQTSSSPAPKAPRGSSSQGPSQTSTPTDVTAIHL

Ki: 1.4 nM
SMILES: CC(C)n1c([C@H](C)O)nc2c(F)cc(-c3cc(N[C@@H]4CCN(S(C)(=O)=O)C[C@H]4O)ncc3Cl)cc21 [US11220494, Example E01]
